These results are taken from ChEMBL document CHEMBL1157924, “Exploration of secondary and tertiary pharmacophores in unsymmetrical N,N'-diaryl urea inhibitors of soluble epoxide hydrolase” (Bioorg Med Chem Lett, 2010).

This experiment has as its target T1, Bifunctional epoxide hydrolase 2 (Homo sapiens, UniProt P34913).
T1 sequence (P34913 whole entry): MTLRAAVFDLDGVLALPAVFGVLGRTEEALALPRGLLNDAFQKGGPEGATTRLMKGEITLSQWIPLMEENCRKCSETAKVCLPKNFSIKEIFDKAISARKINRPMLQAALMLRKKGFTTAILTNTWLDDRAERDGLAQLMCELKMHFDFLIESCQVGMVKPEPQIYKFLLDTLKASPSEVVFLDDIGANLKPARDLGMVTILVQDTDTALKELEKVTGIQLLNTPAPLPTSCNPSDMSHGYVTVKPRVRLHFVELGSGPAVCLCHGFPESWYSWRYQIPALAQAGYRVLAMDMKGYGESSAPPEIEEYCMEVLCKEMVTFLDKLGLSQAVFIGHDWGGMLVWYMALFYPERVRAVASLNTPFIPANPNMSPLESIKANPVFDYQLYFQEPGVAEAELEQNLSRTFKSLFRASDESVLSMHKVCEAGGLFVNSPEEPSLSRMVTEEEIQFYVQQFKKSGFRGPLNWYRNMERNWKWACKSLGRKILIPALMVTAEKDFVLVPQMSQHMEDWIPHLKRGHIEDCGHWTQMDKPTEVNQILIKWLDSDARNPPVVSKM
The experiment can be described thus: Inhibition of soluble epoxide hydrolase by fluorescence assay.
`O=C(Nc1ccc(C(F)(F)F)cc1)Nc1ccc(S(=O)(=O)NCCN2CCOCC2)cc1` registered an IC50 of 0.003 µM.

In turn, `O=C(Nc1cccc(C(=O)NCCN2CCOCC2)c1)NC12CC3CC(CC(C3)C1)C2` gave an IC50 of 0.062 µM.

As to `CN1CCN(C(=O)c2ccc(NC(=O)Nc3ccc(F)cc3)cc2)CC1`, the IC50 turned out to be 0.16 µM.

Consider `O=C(Nc1ccc(Cl)cc1)Nc1cccc(C(=O)N2CCOCC2)c1`, for which the IC50 was 0.049 µM.

`O=C(Nc1ccc(C(F)(F)F)cc1)Nc1ccc(F)c(C(=O)N2CCOCC2)c1` returned an IC50 of 0.008 µM.

`O=C(Nc1ccc(OC(F)(F)F)cc1)Nc1ccc(C(=O)N2CCOCC2)cc1` came in with an IC50 of 0.004 µM.

For `CN1CCN(C(=O)c2ccc(NC(=O)Nc3ccc(OC(F)(F)F)cc3)cc2)CC1`, the IC50 was determined as 0.007 µM.

Compound `O=C(O)CCCNC(=O)c1ccc(NC(=O)Nc2ccc(C(F)(F)F)cc2)cc1` registered an IC50 of 0.019 µM.

Compound `O=C(Nc1ccc(C2CCCCC2)cc1)Nc1cccc(C(=O)NCCN2CCOCC2)c1` came in with a half-maximal inhibitory concentration (IC50) of 0.28 µM.

`CC(C)N1CCN(S(=O)(=O)c2ccc(NC(=O)Nc3ccc(C(F)(F)F)cc3)cc2)CC1` yielded an IC50 of 0.005 µM.

In turn, `O=C(Nc1ccc(C(F)(F)F)cc1)Nc1cccc(C(=O)NCCN2CCOCC2)c1` had an IC50 of 0.022 µM.

In turn, `O=C(Nc1ccc(Cl)cc1)Nc1cccc(C(=O)NCCN2CCOCC2)c1` had an IC50 of 0.13 µM.

`O=C(Nc1ccc(C(F)(F)F)cc1)Nc1cccc(S(=O)(=O)NCCN2CCOCC2)c1` registered an IC50 of 0.001 µM.

`O=C(Nc1ccc(C(F)(F)F)cc1)Nc1cccc(S(=O)(=O)CCCN2CCOCC2)c1`: half-maximal inhibition (IC50) was put at 0.001 µM.

In the case of `O=C(O)COCCNC(=O)c1cccc(NC(=O)NC23CC4CC(CC(C4)C2)C3)c1`, it took 0.13 µM to reach half-maximal inhibition (IC50).

For `O=C(Nc1ccc(C(F)(F)F)cc1)Nc1cccc(S(=O)(=O)N2CCOCC2)c1`, the IC50 worked out at 0.001 µM.

Consider `O=C(Nc1ccc(C(F)(F)F)cc1)Nc1ccc(C(=O)NCCN2CCCC2)c(F)c1`, for which the IC50 was 0.019 µM.

In turn, `CC(C)N1CCN(C(=O)c2ccc(NC(=O)Nc3ccc(C(F)(F)F)cc3)cc2)CC1` had a 50% inhibitory concentration (IC50) of 0.002 µM.

With `CN1CCN(C(=O)c2cc(NC(=O)Nc3ccc(C(F)(F)F)cc3)ccc2F)CC1`, the IC50 stood at 0.016 µM.

In turn, `O=C(Nc1ccc(C(=O)Nc2cccnc2)cc1)Nc1ccc(C(F)(F)F)cc1` came in with an IC50 of 0.008 µM.

As to `CC(C)N1CCN(C(=O)c2cccc(NC(=O)Nc3ccc(C(F)(F)F)cc3)c2)CC1`, the 50% inhibitory concentration (IC50) stood at 0.015 µM.

As for `CN1CCN(C(=O)c2cccc(NC(=O)NC34CC5CC(CC(C5)C3)C4)c2)CC1`, inhibition was half-maximal at 0.036 µM (IC50).

In the case of `O=C(Nc1ccc(C(=O)NCCN2CCOCC2)cc1)Nc1ccc(C2CCCCC2)cc1`, the IC50 is 0.019 µM.

The compound `O=C(Nc1ccc(Cl)cc1)Nc1ccc(F)c(C(=O)NCCN2CCOCC2)c1` returned an IC50 of 0.038 µM.

`O=C(Nc1ccc(Cl)cc1)Nc1cccc(C(=O)N2CCC(N3CCOCC3)CC2)c1` showed an IC50 of 0.047 µM.

`CN1CCN(C(=O)c2ccc(NC(=O)Nc3ccc(C(F)(F)F)cc3)cc2)CC1` returned an IC50 of 0.014 µM.

Compound `O=C(Nc1ccc(C(=O)N2CCOCC2)cc1)Nc1ccc(C(F)(F)F)cc1` had a half-maximal inhibitory concentration (IC50) of 0.005 µM.

Compound `O=C(O)CNC(=O)c1ccc(NC(=O)NC23CC4CC(CC(C4)C2)C3)cc1` yielded an IC50 of 0.49 µM.

`O=C(Nc1ccc(C(F)(F)F)cc1)Nc1cccc(C(=O)Nc2cccnc2)c1` returned an IC50 of 0.018 µM.

In the case of `CN(CC(=O)O)C(=O)c1cccc(NC(=O)NC23CC4CC(CC(C4)C2)C3)c1`, the IC50 is 0.23 µM.

For the compound `O=C(Nc1ccc(C(F)(F)F)cc1)Nc1cccc(C(=O)c2ccc(C(=O)O)cc2)c1`, the IC50 worked out at 0.027 µM.

Regarding `O=C(Nc1ccc(C(F)(F)F)cc1)Nc1cccc(C(=O)NCCN2CCCC2)c1`, the IC50 amounted to 0.068 µM.

Compound `O=C(Nc1ccc(Cl)cc1)Nc1ccc(C(=O)NCCN2CCOCC2)cc1` had an IC50 of 0.016 µM.

With `O=C(Nc1ccc(OC(F)(F)F)cc1)Nc1ccc(C(=O)NCCN2CCOCC2)cc1`, inhibition was half-maximal at 0.002 µM (IC50).

Turning to `O=C(Nc1ccc(C(F)(F)F)cc1)Nc1ccc(S(=O)(=O)CCCN2CCOCC2)cc1`, the IC50 was 0.001 µM.

The compound `CN1CCN(C(=O)c2ccc(NC(=O)Nc3ccc(C(F)(F)F)cc3)cc2F)CC1` displayed an IC50 of 0.004 µM.

With `O=C(Nc1ccc(C(F)(F)F)cc1)Nc1ccc(C(=O)N2CCOCC2)c(F)c1`, the IC50 was 0.002 µM.

As for `O=C(O)COCCNC(=O)c1ccc(NC(=O)NC23CC4CC(CC(C4)C2)C3)cc1`, half-maximal inhibition (IC50) was put at 0.08 µM.

The compound `O=C(Nc1ccc(C(F)(F)F)cc1)Nc1ccc(S(=O)(=O)N2CCOCC2)cc1` gave an IC50 of 0.001 µM.

In turn, `O=C(Nc1ccccc1)Nc1cccc(C(=O)NCCN2CCOCC2)c1` yielded an IC50 of 2.8 µM.

Regarding `O=C(Nc1ccc(C(=O)NCCN2CCOCC2)cc1)NC12CC3CC(CC(C3)C1)C2`, the IC50 is 0.003 µM.

Compound `O=C(Nc1ccc(C(=O)N2CCNCC2)cc1)NC12CC3CC(CC(C3)C1)C2` had an IC50 of 0.012 µM.

`O=C(Nc1ccc(C(=O)NCCN2CCCC2)cc1)Nc1ccc(C(F)(F)F)cc1`: the midpoint of inhibition, the IC50, lay at 0.048 µM.

With `O=C(Nc1ccc(C(=O)c2ccc(C(=O)O)cc2)cc1)Nc1ccc(C(F)(F)F)cc1`, inhibition was half-maximal at 0.02 µM (IC50).

`O=C(Nc1ccccc1)Nc1ccc(C(=O)N2CCOCC2)cc1` came in with an IC50 of 0.251 µM.

On to `CN1CCN(C(=O)c2cccc(NC(=O)Nc3ccc(C(F)(F)F)cc3)c2)CC1`, for which half-maximal inhibition (IC50) was put at 0.012 µM.

Consider `O=C(Nc1ccc(Cl)cc1)Nc1ccc(F)c(C(=O)NCCN2CCCC2)c1`, for which the IC50 amounted to 0.76 µM.

`O=C(Nc1ccc(C(F)(F)F)cc1)Nc1ccc(F)c(C(=O)NCCN2CCOCC2)c1` showed an IC50 of 0.018 µM.

In the case of `O=C(Nc1ccc(C(=O)NCC(=O)N2CCOCC2)cc1)Nc1ccc(C(F)(F)F)cc1`, the IC50 worked out at 0.003 µM.

`O=C(Nc1ccc(C(F)(F)F)cc1)Nc1ccc(C(=O)NCCN2CCOCC2)c(F)c1`: half-maximal inhibition (IC50) required 0.002 µM.

As for `O=C(Nc1ccccc1)Nc1ccc(S(=O)(=O)CCCN2CCOCC2)cc1`, inhibition was half-maximal at 0.054 µM (IC50).

Compound `O=C(Nc1ccc(Cl)cc1)Nc1ccc(C(=O)N2CCOCC2)c(F)c1` registered an IC50 of 0.011 µM.

With `CC(C)N1CCN(S(=O)(=O)c2cccc(NC(=O)Nc3ccc(C(F)(F)F)cc3)c2)CC1`, the 50% inhibitory concentration (IC50) turned out to be 0.003 µM.

`O=C(Nc1ccccc1)Nc1ccc(C(=O)NCCN2CCOCC2)cc1` registered an IC50 of 0.32 µM.

In turn, `CC(C)N1CCN(C(=O)c2ccc(NC(=O)Nc3ccc(OC(F)(F)F)cc3)cc2)CC1` had a half-inhibitory concentration (IC50) of 0.004 µM.

In turn, `O=C(Nc1ccc(C(=O)NCCN2CCOCC2)cc1)Nc1ccc(C(F)(F)F)cc1` showed an IC50 of 0.001 µM.

The compound `O=C(Nc1ccc(F)cc1)Nc1ccc(C(=O)NCCN2CCOCC2)cc1` registered an IC50 of 0.14 µM.

For the compound `O=C(O)CNC(=O)c1cccc(NC(=O)NC23CC4CC(CC(C4)C2)C3)c1`, inhibition was half-maximal at 0.8 µM (IC50).

`COCCNC(=O)c1cccc(NC(=O)NC23CC4CC(CC(C4)C2)C3)c1` came in with an IC50 of 0.11 µM.

In turn, `O=C(Nc1ccc(Cl)cc1)Nc1ccc(C(=O)N2CCOCC2)cc1` yielded an IC50 of 0.018 µM.

With `COCCNC(=O)c1ccc(NC(=O)NC23CC4CC(CC(C4)C2)C3)cc1`, half-maximal inhibition (IC50) required 0.054 µM.

Take `O=C(Nc1ccccc1)Nc1cccc(S(=O)(=O)CCCN2CCOCC2)c1`: the IC50 is 0.1 µM.

`O=C(Nc1ccc(F)cc1)Nc1ccc(C(=O)N2CCOCC2)cc1`: the IC50 is 0.17 µM.

In turn, `O=C(O)CCCNC(=O)c1cccc(NC(=O)Nc2ccc(C(F)(F)F)cc2)c1` returned a 50% inhibitory concentration (IC50) of 0.12 µM.

Take `CN(CC(=O)O)C(=O)c1ccc(NC(=O)NC23CC4CC(CC(C4)C2)C3)cc1`: the IC50 came out at 0.2 µM.

`O=C(Nc1ccc(Cl)cc1)Nc1ccc(C(=O)N2CCC(N3CCOCC3)CC2)cc1` had an IC50 of 0.235 µM.
